Data published in patent US20170079970A1, “TETRAHYDROQUINOLINE DERIVATIVES AND THEIR USE AS EPAC1 INHIBITORS FOR THE TREATMENT OF MYOCARDIAL INFARCTION INJURY” (INSERM (INSTITUT NATIONAL DE LA SANTÉ ET DE LA RECHERCHE …, priority 2014, published 2017).

Test system: Isolated mouse adult cardiomyocytes
Assay: Hypoxia and hypoxia-reoxygenation induced cardiomyocyte death, LDH release
Type: cell-based
Conditions: pretreated with 10 μM
Description: FIG. 4. A pharmacological inhibitor of Epac1, R-CE3F4 prevents hypoxia and hypoxia-reoxygenation induced cardiomyocyte death. Isolated mouse adult cardiomyocytes, pretreated or not with either 10 μM R-CE3F4 or its analogue ΔCHO (10 μM) were exposed to hypoxia (HX) for 4 h followed by a 2 h of reoxygenation period (HX+R). Cell death was determined by LDH release. Results are expressed as means±S.E.M. The bar graph represents the average of 5 independent experiments performed in triplicate. Statistical significance was determined by 2-way ANOVA. * P<0.05 compared with indicated values.
Myocardial infarction was induced in wild-type (WT) versus Epac1^−/− littermates by left anterior descending coronary artery (LAD) ligation for 24 h. Ischemia/Reperfusion was induced by the left anterior descending coronary artery occlusion for 45 min and followed by 24 h of reperfusion. The area at risk (AAR) and infarct size were evaluated by Evans blue and TTC staining, respectively. […] Isolated mouse adult cardiomyocytes pretreated with either R-CE3F4 or (ΔCHO) were exposed to hypoxia (HX) for 4 h followed by a 2 h of reoxygenation period (HX+R). Cell death was determined by LDH release.

C[C@@H]1CCc2c(cc(Br)c(F)c2Br)N1C=O [R-CE3F4]
HX+R-induced cardiomyocyte death (LDH release) (hypoxia 4 h followed by 2 h reoxygenation (HX+R)): significantly prevented
HX-induced cardiomyocyte death (LDH release) (hypoxia (HX) for 4 h): significantly prevented
